Consider two compounds from patent publication US12168026B2, “Methods and compositions for wound healing” (priority 2018, dated 2024).

Counter-ions that a name gives are not always drawn.

Data set [1] relates to P. aeruginosa (ATCC 27853). To be noted: Ag+ 0.4 μg mL^−1; cited from earlier work.
For data set [2], the system named is NIH 3T3 mouse fibroblast cells. The procedure:
The mouse fibroblast cell line NIH-3T3, obtained from ATCC (Manassas, VA) was used for all in vitro cell-based experiments. Cell cultures were maintained at 37° C. and were fed with DMEM growth medium supplemented with 10% calf bovine serum (CBS), 2×10^−[…] (Invitrogen, Carlsbad, CA), and 1% Penicillin Streptomycin. Cells were seeded with 1.0×10^4 cells/well of the 96-well plate and were allowed to attach on the bottom of wells for 24 h. After incubation, cells were washed with […] Phosphate Buffer Saline (PBS); pH 7.4). […] Cells treated with 1% Triton X-100 (Sigma Aldrich, St Louis, MO) were used as controls for complete cell death. For the evaluation of cytotoxicity, the CellTiter 96 AQueous non-radioactive assay (Promega, Germany) was performed. This assay measures the conversion (reduction) of a weakly colored tetrazolium salt of MTS (3-{4,5-dimethylthiazol-2-yl}-5-{3-carboxymethoxyphenyl}-2-{4-sulfophenyl}-2H-tetrazolium) to brightly colored formazan by mitochondrial dehydrogenase of metabolically active (live) cells. The amount of formazan formed varies proportionally with the number of live cells. The wells were rinsed with PBS to remove non-adherent cells and then incubated in a serum-free medium containing 20% MTS reagent for 3 h at 37° C. Then, the absorbance was read in a spectrophotometric plate reader at 490 nm (BioTek Instruments, Winooski, VT).
Briefly, fibroblasts were allowed to attach on the bottom of 96-well plates (within 24-h incubation). […] Following incubation, the viability of the cells was determined by measuring cellular mitochondrial dehydrogenase activity (see Materials and Methods for details).

In data set [3] the test system is P. aeruginosa (ATCC 27853). Briefly: Antibacterial activity of solutions of Bp, Ag+ or their mixture (viable counts after 24-h incubation). The class given is cell-based. The settings on record: for CFU decrease of P. aeruginosa: 10^7 CFU in 500 μL HBSS. The procedure:
Viable bacterial counts remaining in suspension following the 24-h incubation were determined by dilution and plating.

The conditions of data set [4]: Bp 2.5 mg mL^−1; cited from earlier work.
In another data set the test system is rats wounds. The settings on record: 5 mg mL^−1 at local incisions of rats wounds; cited from earlier work.

Consider `O=[N+]([O-])[O-].[Ag+]` [Ag^+, Silver nitrate], for which the “CFU decrease of P. aeruginosa (reported)” value in data set [1] is 6 log10 CFU. In addition, in data set [2] (Ag+ 0.4 μg mL^−1 and up to 1.2 μg mL^−1, 24 h), the toxicity toward fibroblasts result is listed as “not to cause significant toxicity”. In addition, the “effect on viability of mammalian cells such as fibroblasts” value in data set [2] (Ag+ 1.7 μg mL^−1 and Bp 0.25 mg mL^−1) is listed as “do not significantly reduce the viability”. The “CFU decrease of P. aeruginosa” value in data set [3] (Ag+ 0.3 μg mL^−1, 24 h) worked out at 3 log10 CFU; in data set [3] (Ag+ 0.4 μg mL^−1, 24 h) it was 6 log10 CFU.
Regarding `CCCCN1CCCCC1C(=O)Nc1c(C)cccc1C` (stereo not shown) [Bp, bupivacaine hydrochloride monohydrate], the “antimicrobial activity (reported)” value in data set [4] was “exhibit antimicrobial activity”. Moreover, the “cytotoxicity limit (concentration of agent that caused a ~50% decrease in viability of cells)” value in data set [2] (mouse, 24 h, pH 7.4) turned out to be 1.2 µg/mL. For the same compound, in the data set with rats wounds, the collagen production result is “decrease collagen production” and the inflammation entry was “significant inflammation”. The antimicrobial activity result in data set [3] (Bp 0.5 mg mL^−1, 24 h) is recorded as “does not exhibit antimicrobial activity”.
